Oligonucleotides are written 5' to 3', each unit as a sugar letter and its base; * is a phosphorothioate linkage, no mark a phosphodiester; rarer units and linkages stand in square brackets, end groups in braces. Plain capitals give the bases only. e = 2'-O-(2-methoxyethyl) (MOE); k = constrained ethyl (cEt); [5mC] = 5-methylcytosine; d = 2'-deoxy (DNA)
Tests used:
TMPRSS2 mRNA = TMPRSS2 mRNA levels in LMR20 cells; assay type: cell-based, human; details: LMR20 cells; for TMPRSS2 mRNA levels (% baseline value) after treatment with DHT: DHT 10 nM 72 hrs; for TMPRSS2 mRNA levels (% baseline value) after treatment with R1881: R1881 10 nM 72 hrs; for TMPRSS2 mRNA levels (% baseline value) of cells without AR agonist treatment: no AR agonist
Procedure: (§1) LMR20 cells were plated at 1,500 cells per well in phenol red-free medium with CSS.

AR mRNA [1] = assay: AR mRNA in LnCaP cells by free uptake (hAR_LTS00943); assay type: cell-based, human; details: 24 hrs
Procedure: Cells were plated at a concentration of 4,000 cells/well in 96-well plates. ISIS oligonucleotides, specified in Table 68, were added individually at 0.02 μM, 0.10 μM, 0.50 μM, 2.50 μM, or 10.00 μM. After an incubation period of 24 hrs, mRNA levels were measured using primer probe set hAR_LTS00943.

AR mRNA [2] = assay: Antisense inhibition of human AR in HuVEC cells, single concentration (electroporation, qRT-PCR RTS3559); assay type: cell-based
Summary of the method: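 AR mRNA levels were measured with human primer-probe set RTS3559 and adjusted for total RNA (RIBOGREEN). Cells were HuVEC, with each antisense oligonucleotide delivered by electroporation at one concentration.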

[3] = system: prostate-specific antigen (PSA) mRNA; assay: PSA mRNA levels in LMR20 cells; assay type: cell-based, human; details: LMR20 cells; for PSA mRNA levels (% baseline value) after treatment with DHT: DHT 10 nM 72 hrs; for PSA mRNA levels (% baseline value) after treatment with R1881: R1881 10 nM 72 hrs; for PSA mRNA levels (% baseline value) of cells without AR agonist treatment: no AR agonist
Procedure: LMR20 cells were plated at 1,500 cells per well in phenol red-free medium with CSS. […] Results are presented in Tables 43-45 as mRNA levels expressed as a percentage of the baseline values. mRNA levels may be lowered or increased after treatment.

AR mRNA [4] = assay: Dose-dependent antisense inhibition of human AR in HuVEC cells (electroporation, qRT-PCR RTS3559, IC50); assay type: cell-based; details: HuVEC
Summary of the method: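 HuVEC cells dosed with antisense oligonucleotides by electroporation and treated approximately 16 hours. AR mRNA quantified by real-time qPCR with primer probe set RTS3559 and normalised to total RNA by RIBOGREEN; IC50 from dose-response.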

AR mRNA [5] = assay: AR mRNA levels in LMR20 cells (with/without DHT or R1881); assay type: cell-based, human; details: LMR20 cells; for AR mRNA levels (% baseline value) after treatment with DHT: DHT 10 nM 72 hrs; for AR mRNA levels (% baseline value) after treatment with R1881: R1881 10 nM 72 hrs; for AR mRNA levels (% baseline value) of cells without AR agonist treatment: no AR agonist
Procedure: as §1

AR mRNA [6] = assay: AR mRNA in liver, heart, skeletal muscle, kidney, prostate of cynomolgus monkeys; assay type: in vivo; details: cynomolgus monkey, 40 mg/kg subcutaneously; for Percent Inhibition of AR mRNA relative to the PBS control, Heart: weeks 1 to 6, Heart; for Percent Inhibition of AR mRNA relative to the PBS control, Kidney: weeks 1 to 6, Kidney; for Percent Inhibition of AR mRNA relative to the PBS control, Liver: weeks 1 to 6, Liver; for Percent Inhibition of AR mRNA relative to the PBS control, Skeletal Muscle: weeks 1 to 6, Skeletal Muscle
Procedure: Cynomolgus monkeys were treated with ISIS antisense oligonucleotides selected from studies described above. Antisense oligonucleotide efficacy and tolerability were evaluated. The human antisense oligonucleotides tested are cross-reactive with the rhesus genomic sequence (GENBANK Accession No. NW_001218131.1 truncated from nucleotides 134001 to 308000 and designated herein as SEQ ID NO: 189). The target start site and target region of each oligonucleotide to SEQ ID NO: 189, as well as the details of their chemistry and sequence, is presented in Table 133.
RNA was extracted from liver, heart, skeletal muscle, kidney, and prostate tissues for real-time PCR analysis of AR using primer probe set RTS3559. The results were normalized to RIBOGREEN®. Results are presented as percent inhibition of AR mRNA, relative to PBS control.

## 569236 (antisense eT*kG*kA*kT*dT*dT*dA*dA*dT*dG*dG*kT*kT*kG*e[5mC]*eA) [compound 569236]
TMPRSS2 mRNA; ASO 0.04 μM
  TMPRSS2 mRNA levels (% baseline value) after treatment with DHT: 113 % baseline value
  TMPRSS2 mRNA levels (% baseline value) after treatment with R1881: 126 % baseline value
  TMPRSS2 mRNA levels (% baseline value) of cells without AR agonist treatment: 96 % baseline value
TMPRSS2 mRNA; ASO 0.20 μM
  TMPRSS2 mRNA levels (% baseline value) after treatment with DHT: 123 % baseline value
  TMPRSS2 mRNA levels (% baseline value) after treatment with R1881: 131 % baseline value
  TMPRSS2 mRNA levels (% baseline value) of cells without AR agonist treatment: 81 % baseline value
TMPRSS2 mRNA; ASO 1.0 μM
  TMPRSS2 mRNA levels (% baseline value) after treatment with DHT: 111 % baseline value
  TMPRSS2 mRNA levels (% baseline value) after treatment with R1881: 98 % baseline value
  TMPRSS2 mRNA levels (% baseline value) of cells without AR agonist treatment: 59 % baseline value
TMPRSS2 mRNA; ASO 5.0 μM
  TMPRSS2 mRNA levels (% baseline value) after treatment with DHT: 110 % baseline value
  TMPRSS2 mRNA levels (% baseline value) after treatment with R1881: 95 % baseline value
  TMPRSS2 mRNA levels (% baseline value) of cells without AR agonist treatment: 48 % baseline value
AR mRNA [1]; 0.02 μM
  Percent inhibition of AR mRNA: 3%
AR mRNA [1]; 0.1 μM
  Percent inhibition of AR mRNA: 2%
AR mRNA [1]; 0.5 μM
  Percent inhibition of AR mRNA: 21%
AR mRNA [1]; 10 μM
  Percent inhibition of AR mRNA: 70%
AR mRNA [2]; 250 nM ASO, ~24 h, Table 7
  % inhibition: 66%
[3]; ASO 0.04 μM
  PSA mRNA levels (% baseline value) after treatment with DHT: 108 % baseline value
  PSA mRNA levels (% baseline value) after treatment with R1881: 90 % baseline value
  PSA mRNA levels (% baseline value) of cells without AR agonist treatment: 122 % baseline value
[3]; ASO 0.20 μM
  PSA mRNA levels (% baseline value) after treatment with DHT: 79 % baseline value
  PSA mRNA levels (% baseline value) after treatment with R1881: 90 % baseline value
  PSA mRNA levels (% baseline value) of cells without AR agonist treatment: 90 % baseline value
[3]; ASO 1.0 μM
  PSA mRNA levels (% baseline value) after treatment with DHT: 46 % baseline value
  PSA mRNA levels (% baseline value) after treatment with R1881: 57 % baseline value
  PSA mRNA levels (% baseline value) of cells without AR agonist treatment: 78 % baseline value
[3]; ASO 5.0 μM
  PSA mRNA levels (% baseline value) after treatment with DHT: 46 % baseline value
  PSA mRNA levels (% baseline value) after treatment with R1881: 41 % baseline value
  PSA mRNA levels (% baseline value) of cells without AR agonist treatment: 73 % baseline value
AR mRNA [4]; 31.25 nM, ~16 h, Table 8
  percent inhibition of AR: 17%
AR mRNA [4]; 62.5 nM, ~16 h, Table 8
  percent inhibition of AR: 39%
AR mRNA [4]; 62.5 nM, ~16 h, Table 10
  percent inhibition of AR: 4%
AR mRNA [4]; 125.0 nM, ~16 h, Table 8
  percent inhibition of AR: 54%
AR mRNA [4]; 125.0 nM, ~16 h, Table 10
  percent inhibition of AR: 35%
AR mRNA [4]; 500.0 nM, ~16 h, Table 8
  percent inhibition of AR: 84%
AR mRNA [4]; 500.0 nM, ~16 h, Table 10
  percent inhibition of AR: 68%
AR mRNA [4]; 1000.0 nM, ~16 h, Table 8
  percent inhibition of AR: 92%
AR mRNA [4]; 1000.0 nM, ~16 h, Table 10
  percent inhibition of AR: 88%
AR mRNA [4]; ~16 h, Table 8
  IC50: 110 nM
AR mRNA [4]; ~16 h, Table 10
  IC50: 252 nM
AR mRNA [5]; ASO 0.04 μM
  AR mRNA levels (% baseline value) after treatment with DHT: 94 % baseline value
  AR mRNA levels (% baseline value) after treatment with R1881: 89 % baseline value
  AR mRNA levels (% baseline value) of cells without AR agonist treatment: 104 % baseline value
AR mRNA [5]; ASO 0.20 μM
  AR mRNA levels (% baseline value) after treatment with DHT: 77 % baseline value
  AR mRNA levels (% baseline value) after treatment with R1881: 80 % baseline value
  AR mRNA levels (% baseline value) of cells without AR agonist treatment: 87 % baseline value
AR mRNA [5]; ASO 1.0 μM
  AR mRNA levels (% baseline value) after treatment with DHT: 44 % baseline value
  AR mRNA levels (% baseline value) after treatment with R1881: 44 % baseline value
  AR mRNA levels (% baseline value) of cells without AR agonist treatment: 42 % baseline value
AR mRNA [5]; ASO 5.0 μM
  AR mRNA levels (% baseline value) after treatment with DHT: 34 % baseline value
  AR mRNA levels (% baseline value) after treatment with R1881: 37 % baseline value
  AR mRNA levels (% baseline value) of cells without AR agonist treatment: 27 % baseline value

## 579671 (antisense eT*kT*kG*eA*kT*kT*dT*dA*dA*dT*dG*dG*dT*kT*kG*k[5mC]) [compound 579671]
AR mRNA [6]
  Percent Inhibition of AR mRNA relative to the PBS control, Heart: 24%
  Percent Inhibition of AR mRNA relative to the PBS control, Kidney: 53%
  Percent Inhibition of AR mRNA relative to the PBS control, Liver: 33%
  Percent Inhibition of AR mRNA relative to the PBS control, Skeletal Muscle: 31%
AR mRNA [1]; 0.02 μM
  Percent inhibition of AR mRNA: 15%
AR mRNA [1]; 0.1 μM
  Percent inhibition of AR mRNA: 0%
AR mRNA [1]; 0.5 μM
  Percent inhibition of AR mRNA: 19%
AR mRNA [1]; 10 μM
  Percent inhibition of AR mRNA: 71%
AR mRNA [4]; 62.5 nM, ~16 h, Table 11
  percent inhibition of AR: 6%
AR mRNA [4]; 125.0 nM, ~16 h, Table 11
  percent inhibition of AR: 40%
AR mRNA [4]; 500.0 nM, ~16 h, Table 11
  percent inhibition of AR: 57%
AR mRNA [4]; 1000.0 nM, ~16 h, Table 11
  percent inhibition of AR: 77%
AR mRNA [4]; ~16 h, Table 11
  IC50: 288 nM

## 583918 (kA*kG*kT*d[5mC]*dG*d[5mC]*dG*dA*d[5mC]*dT*d[5mC]*dT*dG*kG*kT*kA) [compound 583918]
AR mRNA [6]
  Percent Inhibition of AR mRNA relative to the PBS control, Heart: 76%
  Percent Inhibition of AR mRNA relative to the PBS control, Kidney: 73%
  Percent Inhibition of AR mRNA relative to the PBS control, Liver: 88%
  Percent Inhibition of AR mRNA relative to the PBS control, Skeletal Muscle: 74%
AR mRNA [6]; weeks 1 to 6, Prostate
  Percent Inhibition of AR mRNA relative to the PBS control, Prostate: 58%
AR mRNA [1]; 0.02 μM
  Percent inhibition of AR mRNA: 8%
AR mRNA [1]; 0.1 μM
  Percent inhibition of AR mRNA: 0%
AR mRNA [1]; 0.5 μM
  Percent inhibition of AR mRNA: 0%
AR mRNA [1]; 10 μM
  Percent inhibition of AR mRNA: 13%
AR mRNA [2]; Table 21, 500 nM oligonucleotide, electroporation, approximately 24 hours, relative to untreated control
  % inhibition: 47%
AR mRNA [4]; Table 33, 46.9 nM, electroporation, approximately 16 hours
  percent inhibition of AR, 46.9 nM: 16%
AR mRNA [4]; Table 33, 187.5 nM, electroporation, approximately 16 hours
  percent inhibition of AR, 187.5 nM: 47%
AR mRNA [4]; Table 33, 750.0 nM, electroporation, approximately 16 hours
  percent inhibition of AR, 750.0 nM: 68%
AR mRNA [4]; Table 33, 3000.0 nM, electroporation, approximately 16 hours
  percent inhibition of AR, 3000.0 nM: 86%
AR mRNA [4]; Table 33, electroporation, approximately 16 hours
  IC50: 300 nM

Source: patent publication USRE48461E1, “Modulation of androgen receptor expression” (Ionis Pharmaceuticals, Inc., priority 2012, dated 2021)
